From article PMC6345978, “The bacterial MrpORP is a novel Mrp/NBP35 protein involved in iron-sulfur biogenesis” (Scientific Reports, 2019) come the findings set out here.

One assay deals with T1, Orp3-Orp4-Orp8 complex (Nitratidesulfovibrio vulgaris, UniProt Q72A93+Q72A94).
T1 construct: gene DVU_2103; His-tagged Orp3 (pBMC6C3::2103His) co-purified with Orp4 and Orp8 from DvH, metal centres removed; with Orp8, dinitrogenase iron-molybdenum cofactor biosynthesis domain protein
T1 sequence (Q72A94 1-287): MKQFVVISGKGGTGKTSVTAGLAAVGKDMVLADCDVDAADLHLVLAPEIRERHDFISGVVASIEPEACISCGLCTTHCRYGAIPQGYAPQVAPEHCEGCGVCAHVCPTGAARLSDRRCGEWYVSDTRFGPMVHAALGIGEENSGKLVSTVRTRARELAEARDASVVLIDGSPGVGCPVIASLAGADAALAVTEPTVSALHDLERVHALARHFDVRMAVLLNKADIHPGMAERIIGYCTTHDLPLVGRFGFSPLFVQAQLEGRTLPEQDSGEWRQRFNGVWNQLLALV
T1 sequence (Q72A93 1-301): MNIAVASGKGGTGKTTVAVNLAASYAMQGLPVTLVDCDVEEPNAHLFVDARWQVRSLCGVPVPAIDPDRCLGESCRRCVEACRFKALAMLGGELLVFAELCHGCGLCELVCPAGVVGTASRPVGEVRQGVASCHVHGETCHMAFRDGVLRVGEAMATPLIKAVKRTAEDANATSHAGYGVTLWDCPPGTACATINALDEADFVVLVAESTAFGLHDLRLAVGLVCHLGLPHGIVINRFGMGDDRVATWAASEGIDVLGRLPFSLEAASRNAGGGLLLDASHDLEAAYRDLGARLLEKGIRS
T1 sequence (Q72A89 1-119 partner): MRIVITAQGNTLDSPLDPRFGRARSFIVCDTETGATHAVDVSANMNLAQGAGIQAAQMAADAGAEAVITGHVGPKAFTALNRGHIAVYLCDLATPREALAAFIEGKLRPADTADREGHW
The assay can be described thus: Fe-S cluster transfer from holo-MrpORP, Ni-NTA separation, UV-visible spectroscopy. In kind it is binding. The note with it: anaerobic, DTT; cluster type from sequence motifs of Orp3 and Orp4, distribution between chains not resolved.

The target of a further assay is T2, MrpORP (Dde3202) (Oleidesulfovibrio alaskensis, UniProt Q30WF0).
T2 construct: gene Dde_3202; full length, His-tagged (pJF119-3202His), produced in E. coli TG1, isolated aerobically and reconstituted; 43 kDa; [4Fe-4S] proposed between two monomers
T2 sequence (Q30WF0 1-415): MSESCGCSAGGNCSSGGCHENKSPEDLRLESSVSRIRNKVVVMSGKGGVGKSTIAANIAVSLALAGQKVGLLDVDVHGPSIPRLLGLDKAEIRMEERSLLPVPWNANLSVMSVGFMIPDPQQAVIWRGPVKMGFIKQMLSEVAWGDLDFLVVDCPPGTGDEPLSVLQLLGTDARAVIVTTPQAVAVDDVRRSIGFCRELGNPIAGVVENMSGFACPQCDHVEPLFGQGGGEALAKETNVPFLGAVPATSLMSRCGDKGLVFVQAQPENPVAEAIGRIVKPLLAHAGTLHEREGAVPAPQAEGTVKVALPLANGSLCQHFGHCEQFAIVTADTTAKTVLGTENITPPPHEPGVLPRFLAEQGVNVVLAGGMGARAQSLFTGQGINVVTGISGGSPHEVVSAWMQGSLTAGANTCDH
The assay can be described thus: UV-visible spectroscopy after in vitro Fe-S reconstitution. The format is binding. As to conditions: anaerobic, DTT, Fe2+ with cysteine/IscS; a second cluster in the Di-Nase domain also contributes.

For the substance [4Fe-4S] cluster, the A400/A280 is recorded as 0.42 at Orp3-Orp4-Orp8 complex and 0.3 on MrpORP (Dde3202).
